Data on 33 molecules can be found in patent US9012443B2 (Amgen Inc., priority 2011, dated 2015).

The target of assay [1] is T1, Nav 1.7 (Homo sapiens (Human), UniProt Q15858). Description: Nav 1.7 IWQ in vitro assay (IonWorks Quattro population patch-clamp). It counts as cell-based. The settings on record: 293 cells stably transfected with Nav 1.7; second part of table; read-out: Nav1.7 IWQ IC50 IP. The method, boiled down: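 HEK293 cells stably expressing Nav 1.7, recorded by automated population patch-clamp with a train of depolarizations producing increasing inactivation. Single compound concentration added during 3–8 min unclamped period, then same protocol repeated. Leak-corrected current at 26th pulse to −20 mV gave percent block (duplicate); IC50 fitted from concentration–block curves.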
T1 sequence (Q15858 whole entry): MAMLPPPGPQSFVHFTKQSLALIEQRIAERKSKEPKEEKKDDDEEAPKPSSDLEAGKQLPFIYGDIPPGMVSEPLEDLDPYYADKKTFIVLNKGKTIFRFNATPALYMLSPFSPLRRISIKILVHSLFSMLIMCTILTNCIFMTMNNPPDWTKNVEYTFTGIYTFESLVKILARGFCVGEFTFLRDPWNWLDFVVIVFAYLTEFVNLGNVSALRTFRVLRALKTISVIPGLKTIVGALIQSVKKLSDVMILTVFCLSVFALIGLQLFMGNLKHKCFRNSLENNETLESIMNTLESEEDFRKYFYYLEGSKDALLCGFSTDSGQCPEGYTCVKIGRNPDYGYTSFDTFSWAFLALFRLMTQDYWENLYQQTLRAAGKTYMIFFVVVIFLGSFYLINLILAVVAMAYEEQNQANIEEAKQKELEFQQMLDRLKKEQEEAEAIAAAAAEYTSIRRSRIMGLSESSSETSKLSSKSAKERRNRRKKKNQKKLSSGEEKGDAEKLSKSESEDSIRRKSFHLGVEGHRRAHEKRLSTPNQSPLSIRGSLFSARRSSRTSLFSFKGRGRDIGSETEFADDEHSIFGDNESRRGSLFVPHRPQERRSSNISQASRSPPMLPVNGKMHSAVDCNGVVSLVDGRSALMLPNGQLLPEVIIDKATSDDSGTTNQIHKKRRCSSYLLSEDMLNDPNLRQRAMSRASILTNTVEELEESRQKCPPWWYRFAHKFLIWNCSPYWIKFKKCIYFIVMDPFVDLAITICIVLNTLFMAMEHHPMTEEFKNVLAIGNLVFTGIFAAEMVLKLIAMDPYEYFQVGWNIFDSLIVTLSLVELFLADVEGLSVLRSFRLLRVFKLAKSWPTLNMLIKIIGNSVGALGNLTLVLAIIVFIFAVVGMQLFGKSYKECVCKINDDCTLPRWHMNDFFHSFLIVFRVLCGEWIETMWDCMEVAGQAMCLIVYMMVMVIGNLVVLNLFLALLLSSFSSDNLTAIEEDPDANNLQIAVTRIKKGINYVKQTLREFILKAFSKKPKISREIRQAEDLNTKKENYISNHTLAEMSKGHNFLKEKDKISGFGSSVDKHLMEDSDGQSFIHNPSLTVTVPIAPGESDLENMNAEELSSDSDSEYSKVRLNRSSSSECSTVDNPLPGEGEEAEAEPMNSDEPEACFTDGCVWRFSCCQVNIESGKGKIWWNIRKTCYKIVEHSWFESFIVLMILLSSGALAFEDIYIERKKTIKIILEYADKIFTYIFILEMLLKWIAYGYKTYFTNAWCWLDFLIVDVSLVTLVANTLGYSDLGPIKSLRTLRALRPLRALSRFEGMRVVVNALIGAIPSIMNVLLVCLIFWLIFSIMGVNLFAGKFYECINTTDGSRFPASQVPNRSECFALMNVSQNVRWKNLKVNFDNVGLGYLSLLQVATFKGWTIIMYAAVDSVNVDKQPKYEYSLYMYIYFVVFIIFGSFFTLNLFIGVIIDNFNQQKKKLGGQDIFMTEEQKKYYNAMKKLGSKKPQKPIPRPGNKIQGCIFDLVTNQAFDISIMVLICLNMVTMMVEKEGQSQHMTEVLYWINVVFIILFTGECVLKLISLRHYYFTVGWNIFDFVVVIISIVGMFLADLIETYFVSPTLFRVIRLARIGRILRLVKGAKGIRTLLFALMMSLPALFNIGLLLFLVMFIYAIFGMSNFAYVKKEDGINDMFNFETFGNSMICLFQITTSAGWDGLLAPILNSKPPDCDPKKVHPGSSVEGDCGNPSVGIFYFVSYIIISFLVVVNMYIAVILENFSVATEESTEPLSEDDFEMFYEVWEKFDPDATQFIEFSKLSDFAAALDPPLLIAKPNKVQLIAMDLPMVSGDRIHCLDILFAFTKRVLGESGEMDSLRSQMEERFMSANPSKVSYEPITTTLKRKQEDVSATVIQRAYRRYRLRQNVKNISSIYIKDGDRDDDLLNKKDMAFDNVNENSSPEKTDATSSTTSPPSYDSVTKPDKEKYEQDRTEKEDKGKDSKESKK

In assay [2] the target is T1, Nav 1.7. Put plainly: Nav 1.7 in vitro PX assay (PatchXpress whole cell voltage clamp). It counts as cell-based. The settings on record: 293 cells, human Nav1.7, partially inactivated state; read-out: Nav1.7 PX IC50 IP. In a few lines:
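HEK293 cells stably expressing human Nav1.7, whole-cell voltage clamp on PatchXpress, held at potential giving 20–50% inactivation; current elicited by 20 msec pulse to −10 mV.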

For the molecule `COc1ccc(C)cc1-c1nccc2cc(S(=O)(=O)Nc3ccncn3)ccc12` [Example 149], the IC50 at Nav 1.7 [1] is 60 nM; at Nav 1.7 [2] it was 2400 nM.

As to `COc1ccc(C#N)cc1-c1nccc2cc(S(=O)(=O)Nc3ccncn3)ccc12` [Example 150, 1-(5-CYANO-2-METHOXYPHENYL)-N-(PYRIMIDIN-4-YL)ISOQUINOLINE-6-SULFONAMIDE], the values for the IC50 at Nav 1.7 [1] and on Nav 1.7 [2] were 120 nM and 7190 nM, respectively.

Take `COc1ccc(OC(F)(F)F)cc1-c1nccc2cc(S(=O)(=O)Nc3ccncn3)ccc12` [Example 151, 1-(2-METHOXY-5-(TRIFLUOROMETHOXY)PHENYL)-N-(PYRIMIDIN-4-YL)ISOQUINOLINE-6-SULFONAMIDE]: the IC50 at Nav 1.7 [1] turned out to be 30 nM; at Nav 1.7 [2], 1020 nM.

Regarding `COc1cc(OC(F)(F)F)ccc1-c1nccc2cc(S(=O)(=O)Nc3ccncn3)ccc12` [Example 153, 1-(2-METHOXY-4-(TRIFLUOROMETHOXY)PHENYL)-N-(PYRIMIDIN-4-YL)ISOQUINOLINE-6-SULFONAMIDE], the results for the IC50 on Nav 1.7 [1] and on Nav 1.7 [2] were 20 nM and 914 nM, respectively.

For `COc1cc(F)c(C)cc1-c1nccc2cc(S(=O)(=O)Nc3ccncn3)ccc12` [Example 154], the results for the 50% inhibitory concentration (IC50) on Nav 1.7 [1] and on Nav 1.7 [2] were 40 nM and 2180 nM, respectively.

In the case of `COc1cc2ccccc2cc1-c1nccc2cc(S(=O)(=O)Nc3ccncn3)ccc12` [Example 155, 1-(3-METHOXYNAPHTHALEN-2-YL)-N-(PYRIMIDIN-4-YL)ISOQUINOLINE-6-SULFONAMIDE], the IC50 at Nav 1.7 [1] was found to be 30 nM; on Nav 1.7 [2] it was 1130 nM.

On to `O=S(=O)(Nc1ccncn1)c1ccc2c(-c3ccc(C(F)(F)F)cc3Cl)nccc2c1` [Example 156, 1-(2-CHLORO-4-(TRIFLUOROMETHYL)PHENYL)-N-(PYRIMIDIN-4-YL)ISOQUINOLINE-6-SULFONAMIDE], for which the 50% inhibitory concentration (IC50) on Nav 1.7 [1] is 220 nM; at Nav 1.7 [2], 2850 nM.

`COc1cccc(F)c1-c1nccc2cc(S(=O)(=O)Nc3ccncn3)ccc12` [Example 158, 1-(2-FLUORO-6-METHOXYPHENYL)-N-(PYRIMIDIN-4-YL)ISOQUINOLINE-6-SULFONAMIDE]: the figures for the concentration for half-maximal inhibition (IC50) on Nav 1.7 [1] and at Nav 1.7 [2] were 180 nM and 5030 nM, respectively.

In the case of `COc1cc(Cl)ccc1-c1nccc2cc(S(=O)(=O)Nc3ccncn3)ccc12` [Example 160, 1-(4-CHLORO-2-METHOXYPHENYL)-N-(PYRIMIDIN-4-YL)ISOQUINOLINE-6-SULFONAMIDE], the IC50 was 20 nM at Nav 1.7 [1] and 1330 nM on Nav 1.7 [2].

Turning to `COc1cc(Cl)c(Cl)cc1-c1nccc2cc(S(=O)(=O)Nc3ccncn3)ccc12` [Example 161, 1-(4,5-DICHLORO-2-METHOXYPHENYL)-N-(PYRIMIDIN-4-YL)ISOQUINOLINE-6-SULFONAMIDE], the IC50 at Nav 1.7 [1] was found to be 20 nM; at Nav 1.7 [2], 393 nM.

Turning to `Cc1cc2cnn(C)c2cc1-c1nccc2cc(S(=O)(=O)Nc3ccncn3)ccc12` [Example 165], the IC50 at Nav 1.7 [1] was 5430 nM; on Nav 1.7 [2], > 30000 nM.

In the case of `COc1cc(F)ccc1-c1nccc2cc(S(=O)(=O)Nc3ccncn3)ccc12` [Example 167, 1-(4-FLUORO-2-METHOXYPHENYL)-N-(PYRIMIDIN-4-YL)ISOQUINOLINE-6-SULFONAMIDE], the values for the IC50 on Nav 1.7 [1] and on Nav 1.7 [2] were 50 nM and 4260 nM, respectively.

Consider `COc1ncc(Cl)cc1-c1nccc2cc(S(=O)(=O)Nc3ccncn3)ccc12` [Example 168, 1-(5-CHLORO-2-METHOXYPYRIDIN-3-YL)-N-(PYRIMIDIN-4-YL)ISOQUINOLINE-6-SULFONAMIDE], for which the IC50 at Nav 1.7 [1] is 30 nM; at Nav 1.7 [2] it was 1600 nM.

On to `COc1cccc(OC)c1-c1nccc2cc(S(=O)(=O)Nc3ccncn3)ccc12` [Example 171, 1-(2,6-DIMETHOXYPHENYL)-N-(PYRIMIDIN-4-YL)ISOQUINOLINE-6-SULFONAMIDE], for which the IC50 worked out at 730 nM on Nav 1.7 [1] and 23000 nM at Nav 1.7 [2].

As to `COc1ccc(-c2nccc3cc(S(=O)(=O)Nc4ccncn4)ccc23)c(OC)c1` [Example 172, 1-(2,4-DIMETHOXYPHENYL)-N-(PYRIMIDIN-4-YL)ISOQUINOLINE-6-SULFONAMIDE], the IC50 was found to be 270 nM on Nav 1.7 [1] and 16600 nM on Nav 1.7 [2].

In the case of `CCOc1ccccc1-c1nccc2cc(S(=O)(=O)Nc3ccncn3)ccc12` [Example 173, 1-(2-ETHOXYPHENYL)-N-(PYRIMIDIN-4-YL)ISOQUINOLINE-6-SULFONAMIDE], the figures for the IC50 at Nav 1.7 [1] and on Nav 1.7 [2] were 430 nM and 8750 nM, respectively.

For `O=S(=O)(Nc1ccncn1)c1ccc2c(-c3ccccc3OCC(F)(F)F)nccc2c1` [Example 174, N-(PYRIMIDIN-4-YL)-1-(2-(2,2,2-TRIFLUOROETHOXY)PHENYL)ISOQUINOLINE-6-SULFONAMIDE], the results for the IC50 on Nav 1.7 [1] and on Nav 1.7 [2] were 640 nM and 29800 nM, respectively.

On to `COc1ncc(Cl)cc1-c1nccc2cc(S(=O)(=O)Nc3nccs3)ccc12` [Example 176, 1-(5-CHLORO-2-METHOXYPYRIDIN-3-YL)-N-(THIAZOL-2-YL)ISOQUINOLINE-6-SULFONAMIDE], for which the IC50 came out at 30 nM on Nav 1.7 [1] and 507 nM on Nav 1.7 [2].

As for `COc1ccc(C(F)(F)F)cc1-c1nccc2cc(S(=O)(=O)Nc3nccs3)ccc12` [Example 180, 1-(2-METHOXY-5-(TRIFLUOROMETHYL)PHENYL)-N-(THIAZOL-2-YL)ISOQUINOLINE-6-SULFONAMIDE], the values for the IC50 at Nav 1.7 [1] and on Nav 1.7 [2] were 40 nM and 439 nM, respectively.

In the case of `COc1cc(NS(=O)(=O)c2ccc3c(-c4ccc(C(F)(F)F)cc4OC)nccc3c2)ncn1` [Example 181, 1-(2-METHOXY-4-(TRIFLUOROMETHYL)PHENYL)-N-(6-METHOXYPYRIMIDIN-4-YL)ISOQUINOLINE-6-SULFONAMIDE], the IC50 on Nav 1.7 [1] is 110 nM; on Nav 1.7 [2] it was 1560 nM.

Take `COc1cc(C(F)(F)F)ccc1-c1nccc2cc(S(=O)(=O)Nc3ccnc(C)n3)ccc12` [Example 182, 1-(2-METHOXY-4-(TRIFLUOROMETHYL)PHENYL)-N-(2-METHYLPYRIMIDIN-4-YL)ISOQUINOLINE-6-SULFONAMIDE]: the values for the IC50 on Nav 1.7 [1] and at Nav 1.7 [2] were 4260 nM and 11700 nM, respectively.

With `COc1cc(C(F)(F)F)ccc1-c1nccc2cc(S(=O)(=O)Nc3ncncc3F)ccc12` [Example 183, N-(5-FLUOROPYRIMIDIN-4-YL)-1-(2-METHOXY-4-(TRIFLUOROMETHYL)PHENYL)ISOQUINOLINE-6-SULFONAMIDE], the IC50 was 670 nM at Nav 1.7 [1] and 5870 nM at Nav 1.7 [2].

As to `COc1cc(C(F)(F)F)ccc1-c1nccc2cc(S(=O)(=O)Nc3nncs3)ccc12` [Example 184, 1-(2-METHOXY-4-(TRIFLUOROMETHYL)PHENYL)-N-(1,3,4-THIADIAZOL-2-YL)ISOQUINOLINE-6-SULFONAMIDE], the IC50 at Nav 1.7 [1] is 320 nM; at Nav 1.7 [2], 912 nM.

With `COc1cc(C(F)(F)F)ccc1-c1nccc2cc(S(=O)(=O)Nc3cccnn3)ccc12` [Example 185, 1-(2-METHOXY-4-(TRIFLUOROMETHYL)PHENYL)-N-(PYRIDAZIN-3-YL)ISOQUINOLINE-6-SULFONAMIDE], the IC50 worked out at 270 nM at Nav 1.7 [1] and 2700 nM at Nav 1.7 [2].

As for `COc1cc(C(F)(F)F)ccc1-c1nccc2cc(S(=O)(=O)Nc3ncccn3)ccc12` [Example 188, 1-(2-METHOXY-4-(TRIFLUOROMETHYL)PHENYL)-N-(PYRIMIDIN-2-YL)ISOQUINOLINE-6-SULFONAMIDE], the IC50 at Nav 1.7 [1] is 200 nM; at Nav 1.7 [2], 3540 nM.

Turning to `O=S(=O)(Nc1nccs1)c1ccc2c(-c3ccc(F)cc3O)nccc2c1` [Example 189, 1-(4-FLUORO-2-HYDROXYPHENYL)-N-(THIAZOL-2-YL)ISOQUINOLINE-6-SULFONAMIDE], the IC50 at Nav 1.7 [1] was 460 nM; on Nav 1.7 [2] it was 5960 nM.

As for `COc1ccccc1-c1nccc2cc(S(=O)(=O)Nc3ncns3)ccc12` [Example 194, 1-(2-METHOXYPHENYL)-N-(1,2,4-THIADIAZOL-5-YL)ISOQUINOLINE-6-SULFONAMIDE], the values for the IC50 at Nav 1.7 [1] and at Nav 1.7 [2] were 10 nM and 255 nM, respectively.

Take `COc1cc(C(F)(F)F)ccc1-c1nccc2cc(S(=O)(=O)Nc3nccs3)ccc12` [Example 196, 1-(2-METHOXY-4-(TRIFLUOROMETHYL)PHENYL)-N-(THIAZOL-2-YL)ISOQUINOLINE-6-SULFONAMIDE]: the IC50 on Nav 1.7 [1] turned out to be 10 nM; at Nav 1.7 [2], 298 nM.

Turning to `COc1cc(C(F)(F)F)ccc1-c1nccc2cc(S(=O)(=O)Nc3ncc(C#N)s3)ccc12` [Example 197, N-(5-CYANOTHIAZOL-2-YL)-1-(2-METHOXY-4-(TRIFLUOROMETHYL)PHENYL)ISOQUINOLINE-6-SULFONAMIDE], the half-inhibitory concentration (IC50) came out at 2930 nM at Nav 1.7 [1] and 3060 nM on Nav 1.7 [2].

On to `COc1cc(C(F)(F)F)ccc1-c1nccc2cc(S(=O)(=O)Nc3ncc(F)s3)ccc12` [Example 198, N-(5-FLUOROTHIAZOL-2-YL)-1-(2-METHOXY-4-(TRIFLUOROMETHYL)PHENYL)ISOQUINOLINE-6-SULFONAMIDE 2,2,2-TRIFLUOROACETATE], for which the figures for the IC50 on Nav 1.7 [1] and on Nav 1.7 [2] were 40 nM and 422 nM, respectively.

For `COc1cc(-c2cccc(C#N)c2)ccc1-c1nccc2cc(S(=O)(=O)Nc3ccncn3)ccc12` [Example 200, 1-(3′-CYANO-3-METHOXY-[1,1′-BIPHENYL]-4-YL)-N-(PYRIMIDIN-4-YL)ISOQUINOLINE-6-SULFONAMIDE], the IC50 at Nav 1.7 [1] stood at 30 nM; at Nav 1.7 [2], 424 nM.

For `COc1cc(Cl)ccc1-c1nccc2cc(S(=O)(=O)Nc3nccs3)ccc12` [Example 201, 1-(4-CHLORO-2-METHOXYPHENYL)-N-(THIAZOL-2-YL)ISOQUINOLINE-6-SULFONAMIDE], the values for the IC50 on Nav 1.7 [1] and at Nav 1.7 [2] were 20 nM and 315 nM, respectively.

In the case of `COc1cc(-c2cccc(F)c2)ccc1-c1nccc2cc(S(=O)(=O)Nc3nccs3)ccc12` [Example 202, 1-(3′-FLUORO-3-METHOXY-[1,1′-BIPHENYL]-4-YL)-N-(THIAZOL-2-YL)ISOQUINOLINE-6-SULFONAMIDE 2,2,2-TRIFLUOROACETATE], the IC50 on Nav 1.7 [1] was determined as 340 nM; at Nav 1.7 [2], 508 nM.

Broadly, the IC50 is the concentration needed to halve the response being measured.
